Measurements published in patent US20030229072A1, “Cyclic and acyclic amidines and pharmaceutical compositions containing them for use as progesterone receptor binning agents” (priority 2000, published 2003).

melting point: 101 to 102 °C
Structure (SMILES): Cc1cc([N+](=O)[O-])ccc1/N=C1/C2CC3CC(C2)CC(C3)N1CC(C)C [Example 54, N-(4-Isobutyl-4-azatricyclo[4.3.1.1^3,8]undec-5-ylidene)-2-methyl-4-nitroaniline]
